Laboratory results as given in article PMC7395068, “The evolution of strategies to minimise the risk of human drug-induced liver injury (DILI) in drug discovery and development” (Archives of Toxicology, 2020).
Like-named read-outs stand apart in the source and are kept apart here.

Key:
[1] = system: HepG2 C3A spheroid, BSEP, Glu/Gal in HepG2 cells, bioactivation; details: cited from earlier work
[2] = system: hLiMTs; experiment: Combined HCI (HCS) and cellular ATP 3D assay in hLiMTs; details: for AC50 / minimal effective concentration: Homo sapiens
[3] = system: primary human hepatocytes, NIH3T3 fibroblasts, BSEP, CYP3A4; details: cited from earlier work
[4] = system: hLiMTs; details: cited from earlier work
[5] = system: OATP1B1; details: known substrates; cited from earlier work
[6] = read-out: Human plasma Cmax; total plasma Cmax.tot, median of 9 literature references; cited from earlier work
[7] = cited from earlier work
[8] = system: HepG2 cells, primary human hepatocytes; details: In vitro Assay; ref Garside 2014; cited from earlier work
[9] = plasma free fraction; cited from earlier work
[10] = ref Chen 2011; cited from earlier work
[11] = system: THLE or HepG2 cells, isolated mitochondria, BSEP; details: cited from earlier work
[12] = system: THLE-Null and THLE-3A4 cells; details: In vitro Assay; ref Gustafsson 2014; cited from earlier work
[13] = system: PHH; details: cited from earlier work
[14] = system: rBsep; details: In vitro Assay; ref Dawson 2012; cited from earlier work
[15] = system: HepaRG spheroids; experiment: Combined HCI (HCS) and cellular ATP 3D assay in HepaRG spheroids; details: for AC50 / minimal effective concentration: Homo sapiens
[16] = system: PHH 3D spheroids; design: method as in Bell et al. 2018; details: 14-day exposure, three donors, ref Bell et al. 2018; cited from earlier work
[17] = cited from earlier work; remark: listed apart in the source
[18] = system: PHH spheroids; details: cited from earlier work
[19] = Plasma free fraction (fu) and unbound Cmax (Cmax,u); format: in vitro ADME, human; details: unbound plasma Cmax
[20] = Microtissue model structural based (HCI), combined HCS and ATP, MEC < 25 × Cmax.tot cut-off
[21] = In vitro Assay, ref Schadt 2015
[22] = In vitro Assay, ref Proctor 2017
[23] = Modeled in vitro assays (cytotoxicity, mitochondrial dysfunction, BSEP), ref Aleo et al. 2019

- hLiMTs <25x Avg Cmax ATP ([2]; hLiMTs, ATP endpoint, cut-off <25x Avg Cmax): +ve
- hLiMTs <100x Avg Cmaxu ATP ([2]; hLiMTs, ATP endpoint, cut-off <100x Avg Cmaxu): -ve
- hLiMTs <25x Avg Cmax HCS ([2]; hLiMTs, HCS endpoints, cut-off <25x Avg Cmax): +ve
- hLiMTs <100x Avg Cmaxu HCS ([2]; hLiMTs, HCS endpoints, cut-off <100x Avg Cmaxu): -ve
- hLiMTs <25x Avg Cmax All ([2]; hLiMTs, all endpoints (ATP and HCS), cut-off <25x Avg Cmax): +ve
- hLiMTs Cmax max All ([2]; hLiMTs, all endpoints, Cmax max used): +ve
- hLiMTs Cmax min All ([2]; hLiMTs, all endpoints, Cmax min used): +ve
- hLiMTs <10 uM All ([2]; hLiMTs, all endpoints, cut-off <10 uM): -ve
- hLiMTs <100x Avg Cmaxu All ([2]; hLiMTs, all endpoints, cut-off <100x Avg Cmaxu): -ve
- HepaRG <25x Avg Cmax ATP ([15]; HepaRG, ATP endpoint, cut-off <25x Avg Cmax): +ve
- HepaRG <100x Avg Cmaxu ATP ([15]; HepaRG, ATP endpoint, cut-off <100x Avg Cmaxu): -ve
- HepaRG <25x Avg Cmax HCS ([15]; HepaRG, HCS endpoints, cut-off <25x Avg Cmax): +ve
- HepaRG <100x Avg Cmaxu HCS ([15]; HepaRG, HCS endpoints, cut-off <100x Avg Cmaxu): -ve
- HepaRG <25x Avg Cmax All ([15]; HepaRG, all endpoints (ATP and HCS), cut-off <25x Avg Cmax): +ve
- HepaRG Cmax max All ([15]; HepaRG, all endpoints, Cmax max used): +ve
- HepaRG Cmax min All ([15]; HepaRG, all endpoints, Cmax min used): +ve
- HepaRG <10 uM All ([15]; HepaRG, all endpoints, cut-off <10 uM): -ve
- HepaRG <100x Avg Cmaxu All ([15]; HepaRG, all endpoints, cut-off <100x Avg Cmaxu): -ve
- Human plasma Cmax,u [19]: 0.149 µM
Structure (SMILES): COc1ccccc1Oc1c(NS(=O)(=O)c2ccc(C(C)(C)C)cc2)nc(-c2ncccn2)nc1OCCO [bosentan]
- Bayesian Machine Learning DILI prediction, Williams (2019) ([1]; Bayesian modeling, ref Williams et al. 2019): +VE
- Bayesian Machine Learning ([1]; In vitro Assay, ref Williams 2019): +VE
- AC50 ([2]; read-out: ATP endpoint AC50): 57.9 µM
- minimal effective concentration ([2]; read-out: ATP endpoint MEC): 29.4 µM
- AC50 ([2]; read-out: HCS endpoint AC50): 179 µM
- minimal effective concentration ([2]; read-out: HCS endpoint MEC): 63 µM
- DILI prediction hLiMTs (HCS-MEC) [2, 20]: +VE (MEC < 25 × Cmax.tot cut-off)
- DILI in vitro assay prediction, Schadt (2015) ([3]; BSEP & Metabolism based, ref Schadt et al. 2015): +VE
- Cellular toxicity (3T3 cells) [3, 21]: -VE
- Combined Assay [3, 21]: +VE
- GSH adduct HML [3, 21]: +VE
- Hepatocyte cellular toxicity [3, 21]: +VE
- MitoTox 3T3 [3, 21]: -VE
- TDI CYP3A4 [3, 21]: -VE
- hBSEP inhibition [3, 21]: +VE
- hLiMTs ATP <100uM [4, 22]: +VE (IC50 threshold of 100 µM)
- hLiMTs/100xCmax, Proctor (2017) ([4]; hLiMTs, ATP, IC50 < 100 × Cmax.tot, ref Proctor et al. 2017): +VE (IC50 < 100 × Cmax.tot)
- hLiMTs/100uM, Proctor (2017) ([4]; hLiMTs, ATP, IC50 threshold 100 µM, ref Proctor et al. 2017): +VE (IC50 threshold of 100 µM)
- substrate for hepatic uptake transporter OATP1B1 [5]: known substrates
- Cmax [6]: 7.43 µM
- DILI severity category (Chen et al. [2016]) ([7]; LTKB DILIrank category, ref Chen et al. 2016): Most
- DILI severity category (Chen 2016) ([7]; human DILI classification, LTKB DILIrank, ref Chen et al. 2016): Most
- DILI severity category ([7]; human DILI severity, ref Chen et al.): Most
- DILI +VE (5-8), DILI -VE (-4) ([7]; ref Chen 2016): +VE
- DILI severity category ([7]; ref Chen 2016): vMost-DILI-Concern
- Cluster 1-6 +VE Assay [8]: -VE
- fu [9]: 0.020
- DILI Score (FDA) (1-8) [10]: 7
- Partition Hybrid HRM Score ([11]; In vitro Assay, ref Aleo 2019): +VE
- Ro2 Hybrid HRM Score ([11]; In vitro Assay, ref Aleo 2019): +VE
- Partition Hybrid HRM Score ≥4, Aleo (2019) [11, 23]: +VE (Partition Hybrid HRM Score ≥4)
- Partition Hybrid HRM Score ≥8, Aleo (2019) [11, 23]: +VE (Partition Hybrid HRM Score ≥8)
- Rule of Two hybrid HRM Score ≥3, Aleo (2019) [11, 23]: +VE (Rule of Two hybrid HRM Score ≥3)
- Rule of Two hybrid HRM Score ≥8, Aleo (2019) [11, 23]: +VE (Rule of Two hybrid HRM Score ≥8)
- THLE-Null [12]: -VE
- THLE-Null/3A4 [12]: -VE
- PHH/100xCmax, Proctor (2017) ([13]; 2D PHH, ATP, IC50 < 100 × Cmax.tot, ref Proctor et al. 2017): -VE
- PHH/100uM, Proctor (2017) ([13]; 2D PHH, ATP, IC50 threshold 100 µM, ref Proctor et al. 2017): -VE
- PHH ATP <100uM [13, 22]: -VE
- Inhibition of rBsep cutoff<1& cmax u>.2 [14]: +VE
- Inhibition of rBsep cutoff<3 [14]: +VE
- AC50 ([15]; HepaRG, read-out: ATP endpoint AC50): 74.7 µM
- minimal effective concentration ([15]; HepaRG, read-out: ATP endpoint MEC): 35.2 µM
- AC50 ([15]; HepaRG, read-out: HCS endpoint AC50): 125 µM
- minimal effective concentration ([15]; HepaRG, read-out: HCS endpoint MEC): 40 µM
- DILI prediction HepaRG spheroids (HCS-MEC) [15, 20]: +VE (MEC < 25 × Cmax.tot cut-off)
- detection at 10 × Cmax.tot cut-off [16]: only detected by one of three donors
- Assigned DILI category ([17]; Chen et al. 2016 or literature alignment, ref Chen et al. 2016): 3
- In vivo DILI ([17]; ref Aleo 2019): +VE
- In vivo DILI ([17]; ref Dawson 2012): +VE
- In vivo DILI ([17]; ref Garside 2014): +VE
- In vivo DILI ([17]; ref Gustafsson 2014): +VE
- In vivo DILI ([17]; ref Proctor 2017): +VE
- In vivo DILI ([17]; ref Schadt 2015): +VE
- In vivo DILI ([17]; ref Vorrink 2018): +VE
- In vivo DILI ([17]; ref Williams 2019): +VE
- hLiMTs ATP <20 x Cmax ([18]; In vitro Assay, ref Vorrink 2018): +VE (IC20 < 20 × Cmax.tot cut-off)
- DILI in vitro assay prediction, Vorrink (2018) ([18]; PHH spheroids, ATP, 14 days, IC20 < 20 × Cmax.tot, ref Vorrink et al. 2018): +VE (IC20 < 20 × Cmax.tot cut-off)
